From PubChem BioAssay AID540269 (Sanford-Burnham Center for Chemical Genomics, 2011)
Calls of active or inactive are those of the source. The rule behind the calls is not given here.

Target: glucose-6-phosphate dehydrogenase-6-phosphogluconolactonase (Plasmodium falciparum 3D7)
Assay: PfG6PD enzyme inhibitors, kinetic NADPH readout, dose response, orthogonal assay, biochemical, kinetic NADPH detection (AID 540269)
Conditions: purified PfG6PD-6PGL

| Structure (SMILES) | IC50 |
| --- | --- |
| CCN1CCCC1CNC(=O)c1ccc2c(c1)NC(=O)/C(=C\c1ccc(C)cc1)S2 (stereo unspecified) | 6.79 µM |
| Oc1cc(-n2cccn2)c(O)cc1-n1cccn1 | 68.8 µM |
| Nc1c(O)cccc1C(=O)O | 40.9 µM |
| COC(=O)[C@H](CCSC)NC(=O)c1cc2c(cn1)[nH]c1ccccc12 | 20.2 µM |
| C=CCOc1c(Cl)cc(CNc2ccc3[nH]c(=O)[nH]c3c2)cc1OC | > 80 µM (inactive) |
| CC(C)c1cc2c(c(O)c1O)[C@@]13CCCC(C)(C)C1CC2OC3=O (stereo partly specified) | 58.4 µM |
| CC1(OC(=O)C2CCCC2)C(=O)C=C2C=C(c3ccsc3)N(CCc3c[nH]c4ccccc34)C=C2C1=O (stereo unspecified) | > 80 µM (inactive) |
| CCN(CC)c1ccc(C(=C2C=CC(=[N+](CC)CC)C=C2)c2ccccc2)cc1 | > 80 µM (inactive) |
| Clc1cccc(Cl)c1CNc1ccc(N2CCCC2)cc1 | 60 µM |
| C[n+]1c(-c2ccccc2)cc2c(=Cc3ccc([N+](=O)[O-])cc3)c3ccccc3n21 | 51.5 µM |
| C=CCN1C=C2C(=O)C(C)(OC(=O)CCC(=O)OC)C(=O)C(Br)=C2C=C1c1ccc(OC)cc1 (stereo unspecified) | > 80 µM (inactive) |
| CCOc1ccc2ccccc2c1/C=N/NC(=O)c1ccncc1 | > 80 µM (inactive) |
| CCn1c(=O)n(CC)c2cc(N3CCCC3)c(NC(=O)c3cccc(C)c3)cc21 | > 80 µM (inactive) |
| CCOc1ccccc1NS(=O)(=O)c1c(C)noc1C | > 80 µM (inactive) |
| Cc1ccc(NNS(=O)(=O)c2ccc(C)cc2)cc1 | 36.8 µM |
| O=C(Nc1nnc(S(=O)(=O)N2CCCC2)s1)c1cccc([N+](=O)[O-])c1 | > 80 µM (inactive) |
| O=C(CCc1ccc(O)c(O)c1)N/N=C/c1cc2c(cc1[N+](=O)[O-])OCO2 | 16.6 µM |
| C[C@H](CO)N1C[C@H](C)[C@@H](CN(C)C(=O)Nc2ccc(C(F)(F)F)cc2)Oc2c(cccc2N(C)C)C1=O | > 80 µM (inactive) |
| c1ccc(-c2cn3c(n2)CCc2ccc4cccnc4c2-3)cc1 | > 80 µM (inactive) |
| CCC1(CC)Cc2ccccc2C(N)=C1C#N | > 80 µM (inactive) |
| Cc1ccccc1OCC(=O)N/N=C/c1ccc(Sc2nc3ccccc3s2)o1 | > 80 µM (inactive) |
| Cc1cc(C)c2c(=O)n(CC(=O)Nc3ccc(Br)c(C)c3)sc2n1 | 58.5 µM |

| Structure (SMILES) | IC50 |
| --- | --- |
| O=C(Nc1ccc(N2CCN(C(=O)c3ccco3)CC2)c(Cl)c1)c1cc2ccccc2o1 | 53.8 µM |
| Cc1nc2c(o1)C(=O)c1ccccc1C2=Nc1ccccc1 | > 80 µM (inactive) |
| COc1cc(N=c2ssnc2Cl)c(OC)cc1Cl | 36.8 µM |
| CNCc1ccccc1Sc1cc(O)ccc1O | 54.5 µM |
| C[c-]1[c-](C)[c-](C)[c-](C)[c-]1C.[Fe].c1cc2nccc(N3CCCC3)[c-]2c1 (stereo unspecified) | 52.9 µM |
| O=S(=O)(Nc1cc(Sc2cccc3cccnc23)c(O)c2ccccc12)c1ccc(F)cc1 | 59.4 µM |
| O=c1[nH]c(NCCO)c(N=Cc2ccccc2)c(=O)[nH]1 | > 80 µM (inactive) |
| O=C(CNc1ccc2c(c1)OCO2)N/N=C\c1cn(Cc2ccccc2)c2ccccc12 | > 80 µM (inactive) |
| NNC(=O)CN1C(c2ccccc2Br)=Nc2ccc(Br)cc2C1c1ccccc1 (stereo unspecified) | 57.2 µM |
| CC(C)(C)c1ccc(C(=O)Nc2sc3c(c2C(=O)O)CCC3)cc1 | 12.7 µM |
| COc1cc(N=c2ssnc2Cl)cc(OC)c1OC | 34 µM |
| COc1ccc(CNC(=O)Cc2cn(C)c3ccccc23)c(OC)c1 | > 80 µM (inactive) |
| O=S(=O)(Nc1cccc2cccnc12)c1ccccc1 | 20.9 µM |
| CC(=O)Nc1ccc(S(=O)(=O)NNc2cccc(C)c2)cc1 | > 80 µM (inactive) |
| O=C(N/N=C/c1cccc([N+](=O)[O-])c1)C(=O)N1CCCCCC1 | > 80 µM (inactive) |
| O=C(CNC(=O)c1ccc(Br)cc1)NCC(=O)OCC(=O)c1ccc([N+](=O)[O-])cc1 | > 80 µM (inactive) |
| N#C/C(C(=O)Nc1ccc(Cl)cc1)=C(/S)Nc1ccccc1 | 41.5 µM |
| Cc1cc(C)nc(/N=C(\N)Nc2ccccc2-c2ccccc2)n1 | > 80 µM (inactive) |
| O=c1c2cc([N+](=O)[O-])ccc2sn1-c1ccccc1 | 15.9 µM |
| CC1CCc2[nH]c3ccc(C(=O)N(C)CC(=O)Nc4ccccc4C(F)(F)F)cc3c2C1 (stereo unspecified) | > 80 µM (inactive) |
| Cc1nnc(N/N=C/c2ccc(-c3ccccc3F)o2)n1N | 32.1 µM |
| COc1cccc(-c2c(C(=O)N/N=C/c3ccc(C)o3)nnn2-c2nonc2N)c1 | 12.7 µM |

| Structure (SMILES) | IC50 |
| --- | --- |
| S=c1ncc2[nH]c(=S)[nH]c2[nH]1 | 64.4 µM |
| COC1=CC(=O)C=C(OC)C1(O)CC(C)=O | > 80 µM (inactive) |
| CCn1c(N)c(C(=O)NC)sc1=S | 26.3 µM |
| CCCNC(=O)Cn1sc2nc(C)cc(C)c2c1=O | 51.1 µM |
| Clc1ccc2nc(-c3ccc(Br)s3)cn2c1 | > 80 µM (inactive) |
| O=C1C(=Cc2cccc(O)c2O)SC(=S)N1CCCN1CCOCC1 | 28.2 µM |
| Cc1ccsc1/C=N/NC(=O)c1cccc(S(=O)(=O)Nc2ccccc2Cl)c1 | > 80 µM (inactive) |
| O=c1[nH]nc(CNc2ccc(O)cc2)c2ccccc12 | > 80 µM (inactive) |
| COc1ccc(C(=O)Nc2nnc(S(=O)(=O)N3CCOCC3)s2)cc1 | 32.8 µM |
| COc1cc(CNc2ccc(N3CCCC3)cc2)ccc1OCc1ccccc1F | > 80 µM (inactive) |
| COc1cc(SSc2cc(OC)cc([N+](=O)[O-])c2N)c(N)c([N+](=O)[O-])c1 | 44.6 µM |
| C=C1C(=O)O[C@@H]2C[C@@H](C)[C@@H]3C=CC(=O)[C@@]3(C)[C@@H](OC(=O)CC(=O)O[C@H]3[C@@H]4C(=C)C(=O)O[C@@H]4C[C@@H](C)[C@@H]4C=CC(=O)[C@]43C)[C@H]12 | > 80 µM (inactive) |
| CC(C)(C)c1ccc(O)c(O)c1 | 48.6 µM |
| Cc1c(/C=C/C(=O)c2ccc(Cl)s2)cnn1C | 41.1 µM |
| CCN(CC)C(=O)c1c(C)[nH]c(=S)c(C#N)c1-c1ccco1 | > 80 µM (inactive) |
| COc1cc(NCc2ccccc2O)c2ncccc2c1 | 35 µM |
| O=C(NCCCN1CCOCC1)c1sc2cc([N+](=O)[O-])ccc2c1Cl | 38.5 µM |
| O=C(CNC(=O)c1ccccc1)NCC(=O)OCC(=O)c1ccc([N+](=O)[O-])cc1 | 67.1 µM |
| O=C1Nc2ccccc2C(=O)C1(Cl)Cc1ccccc1 (stereo unspecified) | > 80 µM (inactive) |
| O=c1[nH]c2ccc(NCc3ccccc3OCc3ccc(Cl)cc3)cc2[nH]1 | > 80 µM (inactive) |
| Cc1cc(C)c(NC(=S)NCC2CCN(C(C)c3ccccc3)C2)c(C)c1 (stereo unspecified) | > 80 µM (inactive) |
| Cc1ccc(C(=O)/C=C/C(=O)c2ccc(C)cc2)cc1 | > 80 µM (inactive) |

| Structure (SMILES) | IC50 |
| --- | --- |
| COC(=O)CCC(=O)Nc1sc(Cc2ccccc2)c(C)c1C(N)=O | 35.1 µM |
| O=C1C=CC(=O)N1CCNc1ncc(C(F)(F)F)cc1Cl | 34.8 µM |
| CC1(C)CC2(CC(c3ccccc3F)c3ccc(O)c(O)c3O2)NC(=S)N1 (stereo unspecified) | 45.8 µM |
| Nc1c(C(=O)Nc2ccc(F)cc2)sc(=S)n1-c1ccccc1F | > 80 µM (inactive) |
| c1cc(CNc2ccc3c(c2)OCO3)ccn1 | > 80 µM (inactive) |
| COc1ccc(CCn2c(NN=C3CCCCC3)nc3c2c(=O)[nH]c(=O)n3C)cc1 | > 80 µM (inactive) |
| C(=N\Nc1nc2ccccc2[nH]1)/c1ccccn1 | > 80 µM (inactive) |
| Cc1cc(O)c(C(C)C)cc1N=Cc1ccc([N+](=O)[O-])cc1 | > 80 µM (inactive) |
| Nc1ccc(N(CCO)CCO)cc1 | > 80 µM (inactive) |
| NC(=O)N/N=C/c1ccc(-n2nncc2-c2ccc(Cl)cc2)cc1 | > 80 µM (inactive) |
| COc1cccc2nc3cc(C)c(C)cc3nc12 | > 80 µM (inactive) |
| CN(C)C=Nc1ccc2nc3c(cc2c1)[nH]c1ccccc13 | > 80 µM (inactive) |
| CCNc1ccccc1CP(=O)(c1ccccc1)c1ccccc1O (stereo unspecified) | > 80 µM (inactive) |
| CN1C(=O)CSc2ccc(NC(=O)N3CCc4ccccc43)cc21 | > 80 µM (inactive) |
| COc1ccc(N=C2C(=S)N(c3ccc(OC)cc3)C(=NS(=O)(=O)c3ccccc3)N2c2ccccc2)cc1 | > 80 µM (inactive) |
| Cc1ccc(S(=O)(=O)C=CS(=O)(=O)c2ccc(C)cc2)cc1 | 41.2 µM |
| O=c1ccsn1Cc1ccccc1 | 57.9 µM |
| COc1cc(O)c(C(=O)O)c(-c2cc(O)c(O)cc2C)c1 | 19.4 µM |
| N#Cc1ccc(N=c2ssnc2Cl)cc1 | 53.7 µM |
| COc1cccc(C(=O)Nc2nnc(C(C)C)s2)c1 | 21.4 µM |
| COc1ccc2nc3cc(Cl)ccc3c(Nc3ccc(O)c(CN4CCN(C)CC4)c3)c2c1 | > 80 µM (inactive) |
| O=C(COc1cccc2ccccc12)Nc1ccc(Cl)cc1C(=O)O | 33.7 µM |

| Structure (SMILES) | IC50 |
| --- | --- |
| O=c1c2cc(F)ccc2sn1-c1ccc(F)cc1 | 23.4 µM |
| Cc1ccc(N2CC(C(=O)OCC(=O)c3ccc([N+](=O)[O-])cc3)CC2=O)cc1 (stereo unspecified) | > 80 µM (inactive) |
| COc1ccc(C(=O)c2c(C(F)(F)F)oc3c2C(=O)c2ccccc2C3=O)cc1 | > 80 µM (inactive) |
| NC1CCc2cc(O)c(O)cc2C1 (stereo unspecified) | 34.5 µM |
| Cc1nc2ccccn2c1-c1ccnn1S(=O)(=O)c1ccc(F)cc1 | > 80 µM (inactive) |
| O=C1C=CC2=C3c4cc(O)c(O)cc4CC3(O)COC2=C1O (stereo unspecified) | 37.8 µM |
| C=CCc1c(C)[nH]c(=S)c(C#N)c1C | > 80 µM (inactive) |
| O=c1c2cc(F)ccc2sn1-c1ccccc1Cl | 12.7 µM |
| O=C(CNC(=O)c1ccco1)OCC(=O)c1ccc([N+](=O)[O-])cc1 | 50.9 µM |
| CCOC(=O)c1c(C)n(-c2ccc(C)cc2)c2c(C(C(C)=O)C(=O)O)c(Br)c(O)c(O)c12 (stereo unspecified) | 57.4 µM |
| C=CCc1ccccc1OCC(=O)N/N=C/c1ccccc1OCC | > 80 µM (inactive) |
| COc1ccc(CCn2c(NN=C3CCCC3)nc3c2c(=O)[nH]c(=O)n3C)cc1 | > 80 µM (inactive) |
| COC(=O)CCC(=O)OC1(C)C(=O)C2=CN(c3ccc(OC)cc3)C(c3ccc(OC)cc3)=CC2=C(Br)C1=O (stereo unspecified) | > 80 µM (inactive) |
| CCN1CCN(c2nc(C)nc3c2sc(=S)n3C)CC1 | > 80 µM (inactive) |
| O=C(Cc1ccccc1)NCC(=O)OCC(=O)c1ccc([N+](=O)[O-])cc1 | 57.9 µM |
| Cn1c(-c2sccc2OCc2cccc(C(F)(F)F)c2)n[nH]c1=S | 7.3 µM |
| CC(=O)Nc1ccc(S(=O)(=O)/N=C2\C(=O)c3ccccc3C([O-])=C2n2cc[n+](-c3ccccn3)c2)cc1 | > 80 µM (inactive) |
| CCn1c(SCc2nc3scc(-c4ccccc4)c3c(=O)[nH]2)nnc1-c1cccs1 | 58 µM |
